Assay results published in patent US20210274788A1, “PESTICIDALLY ACTIVE ISOXAZOLINE D[…] AMIDE GROUP AND AN AZETIDINE SULFONE GROUP” (SYNGENTA CROP PROTECTION AG, priority 2018, published 2021).

What was measured:
Assay type in all cases: in vivo
[1] = tested on: Euschistus heros (Neotropical Brown Stink Bug); experiment: Euschistus heros (neotropical brown stink bug), sprayed soybean leaves, N2 nymphs; details: 120 h, application rate 200 ppm, 5 days after infestation, read-out: effect in at least one of the two categories (mortality or growth inhibition)
Method: Euschistus heros (Neotropical Brown Stink Bug)
Soybean leaves on agar in 24-well microtiter plates were sprayed with aqueous test solutions prepared from 10,000 ppm DMSO stock solutions. After drying the leaves were infested with N2 nymphs. The samples were assessed for mortality and growth inhibition in comparison to untreated samples 5 days after infestation.

[2] = tested on: Plutella xylostella (Diamond Back Moth); experiment: Plutella xylostella (diamond back moth), treated artificial diet, eggs; details: 192 h, application rate 200 ppm, 8 days after infestation, read-out: effect in at least one of the two categories (mortality or growth inhibition)
Method: Plutella xylostella (Diamond Back Moth)
24-well microtiter plates with artificial diet were treated with aqueous test solutions prepared from 10,000 ppm DMSO stock solutions by pipetting. After drying, Plutella eggs were pipetted through a plastic stencil onto a gel blotting paper and the plate was closed with it. The samples were assessed for mortality and growth inhibition in comparison to untreated samples 8 days after infestation.

[3] = tested on: Spodoptera littoralis (Egyptian Cotton Leaf Worm); experiment: Spodoptera littoralis (Egyptian cotton leaf worm), cotton leaf discs, L1 larvae; details: foliar, 72 h, application rate 200 ppm, 3 days after infestation
Method: Spodoptera littoralis (Egyptian Cotton Leaf Worm)
Cotton leaf discs were placed onto agar in 24-well microtiter plates and sprayed with aqueous test solutions prepared from 10,000 ppm DMSO stock solutions. After drying the leaf discs were infested with five L1 larvae. The samples were assessed for mortality, anti-feeding effect, and growth inhibition in comparison to untreated samples 3 days after infestation. Control of Spodoptera littoralis by a test sample is given when at least one of the categories mortality, anti-feedant effect, and growth inhibition is higher than the untreated sample.

CCOCN(C(=O)c1ccc(C2=NO[C@@](c3cc(Cl)c(F)c(Cl)c3)(C(F)(F)F)C2)cc1C)C1CN(S(=O)(=O)C(F)F)C1 [Compound A3, 4-[(5S)-5-(3,5-dichloro-4-fluoro-phenyl)-5-(trifluoromethyl)-4H-isoxazol-3-yl]-N-[1-(difluoromethylsulfonyl)azetidin-3-yl]-N-(ethoxymethyl)-2-methyl-benzamide]
≥ 80%: percent effect (mortality or growth inhibition) at 200 ppm [1] | percent effect (mortality or growth inhibition) at 200 ppm [2] | percent control (mortality, anti-feedant effect or growth inhibition) at 200 ppm [3]
